The subject of series [1] is allogeneic T cells. Put plainly: Allostimulatory assay (primary MLR, CFSE dilution). The class given is cell-based, human. As to conditions: compared to tDCs without inhibitor; day 6. The procedure: For primary MLR assays, allogeneic T cells (2×10^5) labelled with 5 μM carboxyfluorescein succinimidyl ester (CFSE, Invitrogen) were incubated with tolDC or cDC (2×10^4) in 96-well, round-bottom plates. T cell proliferation was determined by the sequential dilution of CFSE fluorescence of T cells, as detected by flow cytometry on day 6.
T cells were obtained from PBMC non-adherent fraction. tDCs or cDCs (2×104) were cultured with allogeneic T cells (2×105) in complete RPMI medium (Gibco) containing 5% human AB serum (Invitrogen). IL-2 (20 U/ml, PeproTech) was added on day 2, 5 and 7. For primary mixed lymphocyte reaction (MLR) assays, allogeneic T cells (2×105) labelled with 5 μM carboxyfluorescein succinimidyl ester (CFSE) (Invitrogen) were incubated with tDCs or cDCs (2×104). T cell proliferation was determined by the sequential dilution of CFSE fluorescence of T cells, as detected by flow cytometry on day 6. For detection of IFN-γ, IL-10 and IL-17A production by T cells, 2×10^4 tDCs or cDCs were cultured with 2×10^5 allogeneic T cells. Cytokine production was determined by intracellular staining by flow cytometry on day 6 (IFN-γ) and day 9 (IL-10). IL-17A production from cell culture supernatants was analyzed by ELISA on day 6.

For series [2], the system named is tDCs. Put plainly: IL-10 and IL-12 production of restimulated tDCs in the presence of inhibitors (ELISA). It is filed as cell-based, human. Particulars: restimulation with CC, LPS, polyI:C, CD40L, 24 h. The procedure: (§1) To induce maturation, DC were treated with vaccine grade monophosphoryl lipid A (MPLA) (2 μg/ml, Cayla-InvivoGen) on day 6 or on day 7. On day 7 or on day 8, DC were harvested, washed and functional assays were performed. Control DC (cDC) were cultured without tolerising factors. For restimulation assays, tolDC and cDC were extensively washed and recultured in complete RPMI 1640 medium (Gibco) in the absence of tolerising factors for 24-72 h, with or without lipopolysaccharide (LPS, 1 μg/ml, Sigma-Aldrich), poly I:C (25 μg/ml, Cayla-InvivoGen), CD40L (1000 ng/ml, Enzo) or a mixture of pro-inflammatory cytokines containing IL-1β (10 ng/ml), TNFα (10 ng/ml), IL-6 (10 ng/ml) and IFNγ (100 ng/ml) (all from R&D systems). Supernatant and cells were collected for further analysis. Signaling inhibitors were added 1 h before the start of experiments under the specified stimulation conditions. SB203580 (p38 MAPK inhibitor at 10 μM), SP600125 (JNK/SAPK inhibitor at 20 μM), PD98059 (ERK1/2 inhibitor at 20 μM), Bay 11-7082 (NF-κB inhibitor at 10 μM), Stattic (STAT3 inhibitor at 5 μM) and rapamycin (mTOR inhibitor at 100 nM) were obtained from Calbiochem and dissolved in DMSO.
(§2) Cell supernatants were harvested after 24 hours of DC stimulation and frozen at −80° C. until analysis. IL-10, IL-12p70, IL-6 and TNFα concentrations were determined in cell culture supernatants of activated DCs using Luminex assay (MILLIPLEX™ Human Cytokine/Chemokine Kit, Merck Millipore) and ELISA assay (DuoSet ELISA Kit, R&D systems) according to manufacturer's instructions.
(§3) Immature DCs were obtained from buffy coats of healthy donors as previously described [Palova-Jelinkova L, Rozkova D, Pecharova B, Bartova J, Sediva A, Tlaskalova-Hogenova H, Spisek R, Tuckova L: Gliadin fragments induce phenotypic and functional maturation of human dendritic cells. J Immunol 2005; 175:7038-7045]. […] Medium and cytokines were replenished on day 3. On day 6, DCs were harvested and seeded in 96-well plates (Nunc) at 1×10^6 cells/ml. On day 7, immature DCs were activated with vacci grade MPLA (2 μg/ml, Cayla-InvivoGen) for 24 hrs. To induce tDCs, DCs were treated with Dex on day 3 (1 μM, Medochemie) and Dex and VitD2-paricalcitol (1.5 ng/ml, Zemplar, Abbott Laboratories) on day 6. Control DCs (cDCs) were cultured without tolerising factors. For restimulation assays, tDCs and cDCs were washed and recultured in complete RPMI medium (Gibco) containing 5% human AB serum (Invitrogen) in the absence of tolerising factors for 24 h, with or without LPS (1 μg/ml, Sigma-Aldrich), polyI:C (25 μg/ml, Cayla-InvivoGen), megaCD40L™ (1000 ng/ml, Enzo Life Sciences) or mixture of pro-inflammatory cytokines containing IL-1β, TNF-α, IL-6 (all 10 ng/ml) and IFN-γ (100 ng/ml) (all from R&D systems). Signaling inhibitors were added 1 h before the start of experiments under the specified stimulation conditions. SB203580 (p38 MAPK inhibitor at 10 μM), SP600125 (JNK/SAPK inhibitor at 20 μM), PD98059 (ERK1/2 inhibitor at 20 μM), Bay 11-7082 (NF-κB inhibitor at 10 μM), Stattic (STAT3 inhibitor at 5 μM) and rapamycin (mTOR inhibitor at 100 nM) were obtained from Calbiochem and dissolved in dimethyl sulfoxide. Supernatants and cells were collected for further analysis.
Cell supernatants were harvested after 24 h of DC stimulation and frozen at −80° C. until analysis. IL-10, IL-12p70, TNF-α and TGF-β concentrations were determined using Luminex assay (MILLIPLEX™ Human Cytokine/Chemokine Kit, Merck Millipore) and ELISA assay (DuoSet ELISA Kit, R&D systems) according to the manufacturer's instructions. Cell supernatants were acidified before measuring TGF-β levels according to the manufacturer's instructions.
lactate, glucose and lactate dehydrogenase measurements: Concentrations of lactate and glucose in DC culture supernatants were measured with Glycolysis Cell-based assay kit (Cayman Chemicals) and Glucose colorimetric assay kit (BioVision), respectively. […]

For series [3], the system named is glycolysis. The experiment in a line: Metabolic quantification: lactate in DC supernatants. The class given is cell-based, human. As to conditions: pretreatment before restimulation, 24 h. The method, then:
lactate, glucose and lactate dehydrogenase measurements: Concentrations of lactate and glucose in DC culture supernatants were measured with Glycolysis Cell-based assay kit (Cayman Chemicals) and Glucose colorimetric assay kit (BioVision), respectively. When indicated, glycolysis was suppressed by treatment with 10 mM 2-deoxyglucose (Sigma) 1 h prior exposition of DCs cultured in Cell Gro into RPMI, LPS, CC, polyI:C or CD40L. LDH activity of the DCs extracts was measured with Lactate dehydrogenase activity assay kit (Sigma).

Series [4] deals with tDCs. Put plainly: ILT-3, PD-L1 and CD86 expression on restimulated tDCs in the presence of inhibitors (flow cytometry). It is filed as cell-based, human. Particulars: for CD86 expression in tDCs in the presence of inhibitor / ILT-3 and PD-L1 expression in tDCs in the presence of inhibitor: restimulation 24 h. The method, then: as §1
Cells were stained with fluorochrome-conjugated mAbs for 30 min at 4° C. in PBS, washed and analysed on LSRFortessa cell analyzer (BD Biosciences). Appropriate isotype controls were included. Data were analyzed using FlowJo software (Tree Star). DCs were gated according to the FSC, SSC and CD11c+ parameters for analysis. Dead cells were excluded from the analysis based on DAPI staining. For intracellular cytokine staining, T cells were stimulated with phorbol-12-myristate-13-acetate (PMA) (50 ng/ml, Sigma-Aldrich) plus ionomycin (1 μg/ml, Sigma-Aldrich) for 4-16 hours in the presence of Brefeldin A (5 μg/ml, BioLegend) before cell analysing. After stimulation, cells were washed, incubated in Fixation/Permeabilization Buffer (eBiosciences) for 30 min at 4° C., then washed in Permeabilization Buffer (eBiosciences) and stained with appropriate mAb for 30 min at 4° C.
as §3
Cells (2×10^5/well) were stained with fluorochrome-conjugated mAbs for 30 min at 4° C. in PBS, washed and analysed on LSR Fortessa cell analyzer (BD Biosciences). Appropriate isotype controls were included. Data were analyzed using FlowJo software (Tree Star). […]
In general terms: A flow cytometer gives signals particle by particle.

Series [5] concerns cDCs. The experiment in a line: IL-10 and IL-12 production of restimulated cDCs in the presence of inhibitors (ELISA). It is filed as cell-based, human. As to conditions: for IL-12 production in cDCs in the presence of inhibitor: after LPS and CC triggering. The method, then: as §1, §2
Immature DCs were obtained from buffy coats of healthy donors as previously described [Palova-Jelinkova L, Rozkova D, Pecharova B, Bartova J, Sediva A, Tlaskalova-Hogenova H, Spisek R, Tuckova L: Gliadin fragments induce phenotypic and functional maturation of human dendritic cells. J Immunol 2005; 175:7038-7045]. […] Medium and cytokines were replenished on day 3. On day 6, DCs were harvested and seeded in 96-well plates (Nunc) at 1×10^6 cells/ml. On day 7, immature DCs were activated with vacci grade MPLA (2 μg/ml, Cayla-InvivoGen) for 24 hrs. To induce tDCs, DCs were treated with Dex on day 3 (1 μM, Medochemie) and Dex and VitD2-paricalcitol (1.5 ng/ml, Zemplar, Abbott Laboratories) on day 6. Control DCs (cDCs) were cultured without tolerising factors. […]
Cell supernatants were harvested after 24 h of DC stimulation and frozen at −80° C. until analysis. IL-10, IL-12p70, TNF-α and TGF-β concentrations were determined using Luminex assay (MILLIPLEX™ Human Cytokine/Chemokine Kit, Merck Millipore) and ELISA assay (DuoSet ELISA Kit, R&D systems) according to the manufacturer's instructions. […]

For series [6], the system named is DCs.
Protocol: Peripheral blood mononuclear cells (PBMC) from whole blood of patients were isolated using Ficoll-Paque (GE Healthcare) gradient centrifugation and monocytes were separated by allowing 2 h of cell adhesion in 75-cm2 culture flasks (Nunc). Then, non-adherent cells were washed out and frozen. Dendritic cells (DCs) were generated from monocytes in CellGro medium (CellGenix) containing penicillin and streptomycin (100 U/ml and 100 μg/ml, respectively; Gibco) in the presence of IL-4 (248 IU/ml, CellGenix) and GM-CSF (500 IU/ml, Gentaur) for 6 days. Fresh medium with cytokines was added on day 3. Tolerogenic dendritic cells (tolDCs) were induced by adding Dexamethasone on day 3 (1 μM, Medochemie) and Dexamethasone (1 μM) and vitamin D2 (Zemplar; 1.5 ng/ml, Abbott Laboratories) on day 6. Control DCs (cDCs) were generated without tolerogenic factors. On day 6, tolDCs and cDCs were harvested and seeded into 96-well plates (both 1×106 DCs/ml). […]
Cells were stained with mAb for 30 min in PBS at 4° C., washed and analyzed by LSR Fortessa cell analyzer (BD Biosciences). Data were analyzed using FlowJo software (Tree Star). […] DC viability was assessed with Annexin V-PE (Exbio) plus DAPI (Invitrogen) staining. […]

“Also recorded” adds a separate entry of the source.

For `O=CC[C@@H](O)[C@H](O)[C@H](O)CO` [2-DG, 2-deoxyglucose], the “ability of inhibitor-pretreated tDCs to stimulate allogeneic T cell proliferation” value in series [1] is recorded as “increased partially”. In addition, in series [2], the “IL-10 production in tDCs in the presence of inhibitor” value is recorded as “markedly decreased IL-10 production” and the “IL-12 production in tDCs in the presence of inhibitor” value is given as “remained unaffected”. Moreover, in series [3], the “lactate generation in Dex/VitD tDCs in the presence of inhibitor” value was “significantly prevented lactate generation”. Also, in series [4], the “CD86 expression in tDCs in the presence of inhibitor” value (“CD86 expression … of inhibitor” for short) is on record as “remained unaffected”; the “ILT-3 and PD-L1 expression in tDCs in the presence of inhibitor” value (shortened to “ILT-3 and PD-L1 expression … of inhibitor”) was “failed to up-regulate ILT-3 and PD-L1 molecules”.
As to `Cc1ccc(S(=O)(=O)/C=C/C#N)cc1` [Bay 11-7082], in series [2], the “IL-10 production in tDCs in the presence of inhibitor” value is “significantly dependent; also recorded: abrogated IL-10 production” and the “IL-12 production in tDCs in the presence of inhibitor” value is “did not changed IL-12 production; also recorded: did not affect IL-12 production”. In addition, the “IL-12 production in cDCs in the presence of inhibitor” value in series [5] was “markedly down-regulated IL-12 production”.
Consider `C[C@@H]1C[C@H]2[C@@H]3CCC4=CC(=O)C=C[C@]4(C)[C@@]3(F)[C@@H](O)C[C@]2(C)[C@@]1(O)C(=O)CO` [Dex, Dexamethasone], for which, in series [6], the “viability of DCs” value is reported as “did not affect the viability of DCs”.
`COc1cccc(-c2cc(=O)c3ccccc3o2)c1N` [PD98059]: in series [1], the “ability of inhibitor-pretreated tDCs to stimulate allogeneic T cell proliferation” value is given as “increased the ability”. Also, the “IL-10 production in tDCs in the presence of inhibitor” value in series [2] was “significantly dependent”. Further, in series [4] (after LPS stimulation), the “PD-L1 expression in the presence of inhibitor” value was “down-regulated PD-L1 expression”. Also, the “CD86 expression … of inhibitor” value in series [4] is reported as “significantly up-regulated CD86 expression”.
In the case of `C[S+]([O-])c1ccc(-c2nc(-c3ccncc3)c(-c3ccc(F)cc3)[nH]2)cc1` (centres unmarked) [SB203580], in series [2], the “IL-10 production in tDCs in the presence of inhibitor” value is reported as “significantly dependent” and the “IL-12 production in tDCs in the presence of inhibitor” value is listed as “did not changed IL-12 production; also recorded: did not affect IL-12 production”. For the same compound, in series [4], the “ILT-3 and PD-L1 expression … of inhibitor” value was “down-regulated ILT-3 and PD-L1 expression”. For the same compound, the “IL-12 production in cDCs in the presence of inhibitor” value in series [5] is given as “markedly down-regulated IL-12 production”.
For `O=[N+]([O-])c1ccc2c(c1)S(=O)(=O)C=C2` [Stattic], in series [1], the “ability of inhibitor-pretreated tDCs to stimulate allogeneic T cell proliferation” value is “partial restoration”. In addition, in series [2], the “IL-10 production in tDCs in the presence of inhibitor” value was “reduced IL-10 production” and the “IL-12 production in tDCs in the presence of inhibitor” value is recorded as “unaffected”. In series [4], the “CD86 expression … of inhibitor” value is given as “significantly increased CD86 expression”; the “ILT-3 and PD-L1 expression … of inhibitor” value was “markedly reduced expression”. Besides, the “IL-12 production in cDCs in the presence of inhibitor” value in series [5] is reported as “unaffected”. Besides, the “IL-10 production in cDCs in the presence of inhibitor” value in series [5] (after LPS restimulation) was “down-regulated IL-10 production”.
As to `C[C@H](/C=C/[C@H](C)C(C)(C)O)[C@H]1CC[C@H]2/C(=C/C=C3C[C@@H](O)C[C@H](O)C3)CCC[C@]12C` [VitD2, 19-nor-1,25-dihydroxyvitamin D2], in series [6], the “viability of DCs” value was “did not affect the viability of DCs”.

(Values after US9987307B2, “Tolerogenic dendritic cells, methods of producing the same, and uses thereof” (SOTIO A.S., priority 2014, dated 2018).)
